Usually IC50 stands for the concentration that gives 50% inhibition.

The record followed here is patent publication US20230348475A1, “IMIDAZOPYRIDAZINE AND IMIDAZOPYRAZINE COMPOUNDS AS INHIBITORS OF CDK7” (THE TRANSLATIONAL GENOMICS RESEARCH INSTITUTE, priority 2020, published 2023).

Structures can show the parent of a compound that is named as a salt. Some results are limits rather than exact numbers.

The assay deals with CDK7/CycH/MAT1 (Homo sapiens, UniProt P50613). Put plainly: Kinase Glo (ADP-Glo) biochemical assay, CDK7. The conditions noted are these: CDK7/CycH/MAT1 40 ng, ATP 1 μM, 60 minutes at RT, luminescence. The method, then: Materials: • Assay Buffer: 50 mM HEPES, 3 mM MgCl2, 3 mM MnCl2, 1 mM DTT, 3 μM Na3VO4, pH 7.5 • Substrate RB • CTF Peptide (ProQinase #: 0040-0000-6) • Enzymes • CDK7/CycH/MAT1 (ProQinase #: 0366-0360-4) • ADP-Glo™ Assay (Promega #: V9101) • ATP: 10 mM • ADP-Glo™ Reagent • Kinase Detection Reagent • 384-well white assay plates
CDK7/CycH/MAT1, sequence (P50613 whole entry): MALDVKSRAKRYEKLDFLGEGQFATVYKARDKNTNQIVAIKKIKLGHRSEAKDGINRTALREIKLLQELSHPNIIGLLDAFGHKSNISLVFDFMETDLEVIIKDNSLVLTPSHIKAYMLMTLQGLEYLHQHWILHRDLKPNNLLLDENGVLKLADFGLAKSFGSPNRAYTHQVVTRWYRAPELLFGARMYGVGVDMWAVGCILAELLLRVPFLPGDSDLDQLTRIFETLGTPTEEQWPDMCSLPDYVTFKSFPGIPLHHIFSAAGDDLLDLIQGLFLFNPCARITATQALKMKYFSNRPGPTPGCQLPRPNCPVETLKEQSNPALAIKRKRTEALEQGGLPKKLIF
CDK7/CycH/MAT1, sequence (P51946 whole entry partner): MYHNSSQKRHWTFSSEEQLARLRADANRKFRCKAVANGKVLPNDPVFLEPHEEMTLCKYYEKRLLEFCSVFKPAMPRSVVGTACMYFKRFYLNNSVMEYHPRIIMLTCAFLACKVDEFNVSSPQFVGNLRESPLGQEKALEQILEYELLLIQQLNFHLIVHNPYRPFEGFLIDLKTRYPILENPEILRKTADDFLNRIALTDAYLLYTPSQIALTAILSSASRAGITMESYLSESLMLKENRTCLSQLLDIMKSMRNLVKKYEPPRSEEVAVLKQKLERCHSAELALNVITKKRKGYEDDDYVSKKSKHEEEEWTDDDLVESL
CDK7/CycH/MAT1, sequence (P51948 whole entry partner): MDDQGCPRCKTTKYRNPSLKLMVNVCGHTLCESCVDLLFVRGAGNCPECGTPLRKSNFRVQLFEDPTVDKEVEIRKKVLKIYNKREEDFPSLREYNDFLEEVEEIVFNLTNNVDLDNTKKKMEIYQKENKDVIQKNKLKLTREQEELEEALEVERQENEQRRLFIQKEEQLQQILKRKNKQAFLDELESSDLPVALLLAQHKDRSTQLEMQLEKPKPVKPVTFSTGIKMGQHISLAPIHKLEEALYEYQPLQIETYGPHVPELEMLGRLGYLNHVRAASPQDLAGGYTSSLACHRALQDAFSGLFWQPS
A ten point serial dilution of compound was prepared at 5X concentration in assay buffer with the final assay concentrations starting at 30 μM, 10 μM, 3 μM, 1 μM . . . 0 μM. Enzyme, substrate, and ATP were used at 40 ng, 200 ng (or 400 ng)* and 1 μM, respectively. The assay plate was set up by mixing the components in a total reaction volume of 10 μL per well. The plate was centrifuged gently for 10 seconds and incubated at room temperature (RT) for 60 minutes in the dark. The ADP-Glo Reagent and kinase detection reagent were added and incubated as recommended. The reaction was quantified by measuring luminescence on the Perkin Elmer Envision plate reader.
`CC(C)c1cnc2c(NCc3ccc(F)cc3C(F)(F)F)cc(SC3CCNCC3)nn12` [Compound 80, N-(4-fluoro-2-(trifluoromethyl)benzyl)-3-isopropyl-6-(piperidin-4-ylthio)imidazo[1,2-b]pyridazin-8-amine hydrochloride] registered an IC50 of 100 to 1000 nM. Then `COc1cc(F)ccc1CNc1cc(SC2CCCNC2)nn2c(C(C)C)cnc12` (stereo not shown) [Compound 79, N-(4-fluoro-2-methoxybenzyl)-3-isopropyl-6-(piperidin-3-ylthio)imidazo[1,2-b]pyridazin-8-amine formate], with 100 to 1000 nM; and `c1ccc(CNc2cc(NCC3CC4(CCNCC4)O3)nn3c(C4CC4)cnc23)cc1` (stereo not shown) [Compound 17, N6-((1-oxa-7-azaspiro[3.5]nonan-2-yl)methyl)-N8-benzyl-3-cyclopropylimidazo[1,2-b]pyridazine-6,8-diamine], with 100 to 1000 nM. The figure for `CN1CCC(Oc2cc(NCc3ccccc3)c3ncc(C4CC4)n3n2)CC1` [Compound 15, N-benzyl-3-cyclopropyl-6-((1-methylpiperidin-4-yl)oxy)imidazo [1,2-b] pyridazin-8-amine] is 100 to 1000 nM. Compound `COc1ccccc1CNc1cc(SC2CCNCC2(F)F)nn2c(C(C)C)cnc12` (stereo not shown) [Compound 75, 6-((3,3-difluoropiperidin-4-yl)thio)-3-isopropyl-N-(2-methoxybenzyl)imidazo[1,2-b]pyridazin-8-amine hydrochloride] registered an IC50 of 100 to 1000 nM. As for `CC(C)c1cnc2c(Nc3ccccc3OC(F)(F)F)cc(SC3CCCNC3)nn12` (stereo not shown) [Compound 60, 3-isopropyl-6-(piperidin-3-ylthio)-N-(2-(trifluoromethoxy)phenyl)imidazo[1,2-b]pyridazin-8-amine hydrochloride], the IC50 fell in the range of 100 to 1000 nM. The figure for `CC(C)c1cnc2c(N[C@@H](C)c3ccccc3)cc(SC3CCCNC3)nn12` (stereo partly drawn) [Compound 28, 3-isopropyl-N-((S)-1-phenylethyl)-6-(piperidin-3-ylthio) imidazo [1,2-b]pyridazin-8-amine hydrochloride] is less than 100 nM; for `CN1CC[C@@H](Oc2cc(NCc3ccccc3)c3ncc(C4CC4)n3n2)C1` [Compound 10, (R)—N-benzyl-3-cyclopropyl-6-((1-methylpyrrolidin-3-yl)oxy)imidazo[1,2-b]pyridazin-8-amine] it is 100 to 1000 nM. `CC(C)c1cnc2c(Nc3c(F)cccc3F)cc(SC3CCCNC3)nn12` (stereo not shown) [Compound 59, N-(2,6-difluorophenyl)-3-isopropyl-6-(piperidin-3-ylthio)imidazo[1,2-b]pyridazin-8-amine hydrochloride] showed an IC50 of less than 100 nM. Regarding `CC(C)c1cnc2c(NCc3c(F)cccc3F)cc(SC3CCNCC3)nn12` [Compound 52, N-(2,6-difluorobenzyl)-3-isopropyl-6-(piperidin-4-ylthio)imidazo[1,2-b]pyridazin-8-amine hydrochloride], the IC50 is less than 100 nM. The figure for `CC(C)c1cnc2c(NCc3ccccc3OC(F)(F)F)cc(OC3CCNCC3F)nn12` (stereo not shown) [Compound 69, 6-((3-fluoropiperidin-4-yl)oxy)-3-isopropyl-N-(2-(trifluoromethoxy)benzyl)imidazo[1,2-b]pyridazin-8-amine hydrochloride] is 100 to 1000 nM; for `CC(C)c1cnc2c(Nc3cccc(F)c3)cc(OC3CCNCC3)nn12` [Compound 50, N-(3-fluorophenyl)-3-isopropyl-6-(piperidin-4-yloxy)imidazo[1,2-b]pyridazin-8-amine hydrochloride] it is 100 to 1000 nM; for `CN1CCC[C@H](Oc2cc(NCc3ccccc3)c3ncc(C4CC4)n3n2)C1` [Compound 11, (S)—N-benzyl-3-cyclopropyl-6-((1-methylpiperidin-3-yl)oxy)imidazo[1,2-b]pyridazin-8-amine] it is 100 to 1000 nM. `CC(C)c1cnc2c(Nc3cccc(C(F)(F)F)c3)cc(SC3CCCNC3)nn12` (stereo not shown) [Compound 57, 3-isopropyl-6-(piperidin-3-ylthio)-N-(3-(trifluoromethyl)phenyl)imidazo[1,2-b]pyridazin-8-amine hydrochloride] returned an IC50 of 100 to 1000 nM. `CC(C)c1cnc2c(NCc3ccccc3OC(F)(F)F)cc(SC3CCNCC3(F)F)nn12` (stereo not shown) [Compound 76, 6-((3,3-difluoropiperidin-4-yl)thio)-3-)isopropyl-N-(2-(trifluoromethoxy)benzyl)imidazo[1,2-b]pyridazin-8-amine hydrochloride] gave an IC50 of 100 to 1000 nM.

With `CC(C)c1cnc2c(NCc3cccc(C(F)(F)F)c3)cc(SC3CCNCC3)nn12` [Compound 55, 3-isopropyl-6-(piperidin-4-ylthio)-N-(3-(trifluoromethyl)benzyl)imidazo[1,2-b]pyridazin-8-amine hydrochloride], the 50% inhibitory concentration (IC50) is less than 100 nM. `CC(C)c1cnc2c(NCc3ccccc3OC(F)(F)F)cc(SC3CCNCC3F)nn12` (stereo not shown) [Compound 74, 6-((3-fluoropiperidin-4-yl)thio)-3-isopropyl-N-(2-(trifluoromethoxy)benzyl)imidazo[1,2-b]pyridazin-8-amine hydrochloride]: the IC50 fell in the range of 100 to 1000 nM.

`CC(C)c1cnc2c(NCc3ccc(F)cc3C(F)(F)F)cc(SC3CCCNC3)nn12` (stereo not shown) [Compound 81, N-(4-fluoro-2-(trifluoromethyl)benzyl)-3-isopropyl-6-(piperidin-3-ylthio)imidazo[1,2-b]pyridazin-8-amine hydrochloride] yielded an IC50 of 100 to 1000 nM.

In the case of `CN1CC[C@H](Oc2cc(NCc3ccccc3)c3ncc(C4CC4)n3n2)C1` [Compound 8, (S)—N-benzyl-3-cyclopropyl-6-((1-methylpyrrolidin-3-yl)oxy)imidazo[1,2-b]pyridazin-8-amine], the IC50 is 100 to 1000 nM.

Compound `CN1CCC[C@@H](Oc2cc(Nc3cccc(F)c3)c3ncc(C4CC4)n3n2)C1` [Compound 4, (R)-3-cyclopropyl-N-(3-fluorophenyl)-6-((1-methylpiperidin-3-yl)oxy)imidazo[1,2-b]pyridazin-8-amine] yielded an IC50 greater than 1000 nM. Then `CN1CCC(Oc2cc(Nc3cccc(F)c3)c3ncc(C4CC4)n3n2)CC1` [Compound 2, 3-cyclopropyl-N-(3-fluorophenyl)-6-((1-methylpiperidin-4-yl)oxy)imidazo[1,2-b]pyridazin-8-amine], with 100 to 1000 nM. As for `CC(C)c1cnc2c(NCc3ccccc3OC(F)(F)F)cc(OC[C@@H]3CNCCO3)nn12` [Compound 49, (S)-3-isopropyl-6-(morpholin-2-ylmethoxy)-N-(2-(trifluoromethoxy)benzyl)imidazo[1,2-b]pyridazin-8-amine hydrochloride], the half-inhibitory concentration (IC50) was in the range of 100 to 1000 nM. Regarding `c1ccc(CNc2cc(OC3CCNCC3)nn3c(C4CC4)cnc23)cc1` [Compound 14, N-benzyl-3-cyclopropyl-6-(piperidin-4-yloxy)imidazo[1,2-b]pyridazin-8-amine], the IC50 was in the range of 100 to 1000 nM.

`CCOc1ccccc1CNc1cc(SC2CCNCC2)nn2c(C(C)C)cnc12` [Compound 65, N-(2-ethoxybenzyl)-3-isopropyl-6-(piperidin-4-ylthio)imidazo[1,2-b]pyridazin-8-amine hydrochloride] gave an IC50 of less than 100 nM. Then `CC(C)Oc1ccccc1CNc1cc(SC2CCNCC2)nn2c(C(C)C)cnc12` [Compound 67, N-(2-isopropoxybenzyl)-3-isopropyl-6-(piperidin-4-ylthio)imidazo[1,2-b]pyridazin-8-amine hydrochloride], with less than 100 nM. `c1ccc(CNc2nc(NC3CCNCC3)cn3c(C4CC4)cnc23)cc1` [Compound 31, N8-benzyl-3-cyclopropyl-N6-(piperidin-4-yl)imidazo[1,2-α]pyrazine-6,8-diamine hydrochloride] came in with an IC50 greater than 1000 nM. In turn, `CC(C)c1cnc2c(NCc3ccccc3)cc(NC[C@H]3CCNC[C@@H]3O)nn12` [Compound I-3] gave a 50% inhibitory concentration (IC50) of less than 100 nM. Then `CN1CCC[C@@H](Oc2cc(NCc3ccccc3)c3ncc(C4CC4)n3n2)C1` [Compound 9, (R)—N-benzyl-3-cyclopropyl-6-((1-methylpiperidin-3-yl)oxy)imidazo[1,2-b]pyridazin-8-amine], with 100 to 1000 nM; and `CN1CCC[C@H](Oc2cc(Nc3cccc(F)c3)c3ncc(C4CC4)n3n2)C1` [Compound 7, (S)-3-cyclopropyl-N-(3-fluorophenyl)-6-((1-methylpiperidin-3-yl)oxy)imidazo[1,2-b]pyridazin-8-amine], with greater than 1000 nM. Consider `COc1ccccc1CNc1cc(OC2CCN(C)CC2)nn2c(C3CC3)cnc12` [Compound I-2], for which the IC50 fell in the range of 100 to 1000 nM. Compound `CC(C)c1cnc2c(NCc3ccccc3OC(F)(F)F)cc(OC3CCNCC3(F)F)nn12` (stereo not shown) [Compound 71, 6-((3,3-difluoropiperidin-4-yl)oxy)-3-isopropyl-N-(2-(trifluoromethoxy)benzyl)imidazo[1,2-b]pyridazin-8-amine hydrochloride] registered an IC50 greater than 1000 nM. Consider `CC(C)c1cnc2c(NCc3ccccc3-n3cccn3)nc(SC3CCCNC3)cn12` (stereo not drawn) [Compound 68, N-(2-(1H-pyrazol-1-yl)benzyl)-3-isopropyl-6-(piperidin-3-ylthio)imidazo[1,2-α]pyrazin-8-amine hydrochloride], for which the IC50 is less than 100 nM. The figure for `CC(C)c1cnc2c(NCc3ccccc3)cc(NC[C@H]3CCCNC3)nn12` [Compound I-4] is 100 to 1000 nM. `CC(C)c1cnc2c(Nc3ccccc3C(F)(F)F)cc(SC3CCCNC3)nn12` (stereo not shown) [Compound 61, 3-isopropyl-6-(piperidin-3-ylthio)-N-(2-(trifluoromethyl)phenyl) imidazo[1,2-b]pyridazin-8-amine hydrochloride] registered an IC50 of 100 to 1000 nM.
